Laboratory results published in patent US12649751B2 (Arcus Biosciences, Inc., priority 2022, dated 2026).
Where two headings read alike, the source gives them in different places.

Tests used:
HPK1 = HPK1 (Homo sapiens, UniProt Q92918); assay: HPK1 Biochemical Assay (ADP-Glo luminescence; low ATP 10 μM or high ATP 200 μM)
[1] = system: p-SLP-76 (Ser376) in Jurkat cells; assay: pSLP76 Cellular Assay (AlphaLISA SureFire Ultra p-SLP-76 (Ser376), anti-CD3 activated Jurkat cells); assay type: cell-based; conditions: Homo sapiens, read-out: Cellular Potency
How it was run: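 Jurkat cells, serum-starved overnight in Opti-MEM then in HBSS, preincubated 1 h at 37 °C with 22-point 2-fold compound dilutions, then stimulated with anti-CD3 (0.025 mg/ml added solution) for 45 min. Lysate p-SLP-76 (Ser376) measured by AlphaLISA at 570 nm; IC50 from 4-parameter logistic fit.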

[2] = 2 nM HPK1, 10 μM ATP, read-out: Biochemical Potency (low ATP)
[3] = 5 nM HPK1, 200 μM ATP, read-out: Biochemical Potency (high ATP)
[4] = Jurkat cells, anti-CD3 stimulation, pSLP76

Sequence of HPK1 (Q92918 whole entry, species assumed): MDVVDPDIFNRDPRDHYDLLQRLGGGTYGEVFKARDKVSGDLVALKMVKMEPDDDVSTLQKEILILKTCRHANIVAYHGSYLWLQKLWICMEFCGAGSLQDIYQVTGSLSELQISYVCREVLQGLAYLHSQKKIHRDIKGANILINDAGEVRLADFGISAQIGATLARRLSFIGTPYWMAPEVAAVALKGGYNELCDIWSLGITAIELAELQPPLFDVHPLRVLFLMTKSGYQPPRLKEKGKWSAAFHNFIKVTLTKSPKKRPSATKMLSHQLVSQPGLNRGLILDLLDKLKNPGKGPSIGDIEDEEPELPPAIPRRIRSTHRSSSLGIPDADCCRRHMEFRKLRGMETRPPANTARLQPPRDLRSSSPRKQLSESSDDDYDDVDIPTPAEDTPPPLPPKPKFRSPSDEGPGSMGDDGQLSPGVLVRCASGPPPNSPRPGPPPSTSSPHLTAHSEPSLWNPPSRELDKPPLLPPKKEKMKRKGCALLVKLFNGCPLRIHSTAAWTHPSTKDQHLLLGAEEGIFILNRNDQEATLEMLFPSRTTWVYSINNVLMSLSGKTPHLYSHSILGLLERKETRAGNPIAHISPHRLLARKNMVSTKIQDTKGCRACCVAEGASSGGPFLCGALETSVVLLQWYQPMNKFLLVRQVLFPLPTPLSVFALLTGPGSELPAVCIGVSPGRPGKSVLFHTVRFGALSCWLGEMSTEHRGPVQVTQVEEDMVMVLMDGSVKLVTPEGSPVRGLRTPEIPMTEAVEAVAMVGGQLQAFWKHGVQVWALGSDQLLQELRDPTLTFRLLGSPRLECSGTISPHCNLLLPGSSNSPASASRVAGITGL

IC50 (HPK1; [2]) [nM] | IC50 (HPK1; [3]) [nM] | IC50 [1, 4] [nM] | IC50 (HPK1; HPK1 ADP-Glo assay, high ATP (200 μM ATP, 5 nM HPK1), read-out: Biochemical Potency (high ATP)) [nM] | IC50 ([1]; pSLP76 (Ser376) AlphaLISA, anti-CD3 activated Jurkat cells) [nM] | SMILES
< 100 | < 100 | 100 to 1000 | – | – | Cc1cccnc1-c1nc2cc(Nc3cc(C4CCOCC4)nc(N4C[C@@H]5C[C@H]4CN5C)n3)ncc2s1 [Example 249, 2-[(1S,4S)-5-Methyl-2,5-diazabicyclo[2.2.1]heptan-2-yl]-N-[2-(3-methylpyridin-2-yl)-[1,3]thiazolo[5,4-c]pyridin-6-yl]-6-(oxan-4-yl)pyrimidin-4-amine]
< 100 | – | 100 to 1000 | – | – | Cc1cc(-c2nc3cc(Nc4ccc(C5CCOC5)c(CN5CCCC5)n4)ncc3s2)ccn1 (centres unmarked) [Example 253, N-[2-(2-Methylpyridin-4-yl)-[1,3]thiazolo[5,4-c]pyridin-6-yl]-5-(oxolan-3-yl)-6-[(pyrrolidin-1-yl)methyl]pyridin-2-amine]
< 100 | – | 100 to 1000 | – | – | c1cncc(-c2nc3cc(Nc4ccc(C5CCOC5)c(CN5CCCC5)n4)ncc3s2)c1 (centres unmarked) [Example 254, 5-(Oxolan-3-yl)-N-[2-(pyridin-3-yl)-[1,3]thiazolo[5,4-c]pyridin-6-yl]-6-[(pyrrolidin-1-yl)methyl]pyridin-2-amine]
< 100 | – | 100 to 1000 | – | – | Cc1cccc(F)c1-c1nc2cc(Nc3ccc(C4CCOC4)c(CN(C)C)n3)ncc2s1 (centres unmarked) [Example 255, 6-[(Dimethylamino)methyl]-N-[2-(2-fluoro-6-methylphenyl)-[1,3]thiazolo[5,4-c]pyridin-6-yl]-5-(oxolan-3-yl)pyridin-2-amine]
< 100 | – | < 100 | – | – | Cc1ccnn1-c1nc2cc(Nc3ccc(C4CCOC4)c(CN4CCCC4)n3)ncc2s1 (centres unmarked) [Example 256, N-[2-(5-Methyl-1H-pyrazol-1-yl)-[1,3]thiazolo[5,4-c]pyridin-6-yl]-5-(oxolan-3-yl)-6-[(pyrrolidin-1-yl)methyl]pyridin-2-amine]
< 100 | – | 1000 to 5000 | – | – | CN(C)Cc1nc(Nc2cc3nc(-c4c(F)cccc4F)sc3cn2)ccc1C1CCOC1 (centres unmarked) [Example 257, N-[2-(2,6-Difluorophenyl)-[1,3]thiazolo[5,4-c]pyridin-6-yl]-6-[(dimethylamino)methyl]-5-(oxolan-3-yl)pyridin-2-amine]
< 100 | – | 1000 to 5000 | – | – | Cc1cccnc1-c1nc2cc(Nc3ccc(C4CC4)c(CN4CCCC4)n3)ncc2s1 [Example 262, 5-Cyclopropyl-N-[2-(3-methylpyridin-2-yl)-[1,3]thiazolo[5,4-c]pyridin-6-yl]-6-[(pyrrolidin-1-yl)methyl]pyridin-2-amine]
< 100 | – | 100 to 1000 | – | – | CN1C[C@@H]2C[C@H]1CN2c1nccc(Nc2cc3nc(-c4ccnc(N5CC[C@@H](O)C5)c4)sc3cn2)n1 [Example 264, (3R)-1-{4-[6-({2-[(1S,4S)-5-Methyl-2,5-diazabicyclo[2.2.1]heptan-2-yl]pyrimidin-4-yl}amino)-[1,3]thiazolo[5,4-c]pyridin-2-yl]pyridin-2-yl}pyrrolidin-3-ol]
< 100 | – | 100 to 1000 | – | – | CN1C[C@@H]2C[C@H]1CN2c1nccc(Nc2cc3nc(-c4ccnc(N5CCOCC5)c4)sc3cn2)n1 [Example 268, 2-[(1S,4S)-5-Methyl-2,5-diazabicyclo[2.2.1]heptan-2-yl]-N-{2-[2-(morpholin-4-yl)pyridin-4-yl]-[1,3]thiazolo[5,4-c]pyridin-6-yl}pyrimidin-4-amine]
< 100 | – | 1000 to 5000 | – | – | CC(C)(N)c1nc(Nc2cc3nc(-c4c(F)cccc4F)sc3cn2)ccc1N1CCOCC1 [Example 269, 6-(2-Aminopropan-2-yl)-N-[2-(2,6-difluorophenyl)-[1,3]thiazolo[5,4-c]pyridin-6-yl]-5-(morpholin-4-yl)pyridin-2-amine]
< 100 | – | 100 to 1000 | – | – | Cc1ccnn1-c1nc2cc(Nc3ccc(N4CCOCC4)c(C(C)(C)N)n3)ncc2s1 [Example 270, 6-(2-Aminopropan-2-yl)-N-[2-(5-methyl-1H-pyrazol-1-yl)-[1,3]thiazolo[5,4-c]pyridin-6-yl]-5-(morpholin-4-yl)pyridin-2-amine]
< 100 | – | 1000 to 5000 | – | – | CC(C)(N)c1nc(Nc2cc3nc(-c4c(F)cccc4F)sc3cn2)ccc1N1CCC(F)(F)C1 [Example 271, 6-(2-Aminopropan-2-yl)-N-[2-(2,6-difluorophenyl)-[1,3]thiazolo[5,4-c]pyridin-6-yl]-5-(3,3-difluoropyrrolidin-1-yl)pyridin-2-amine]
< 100 | – | 100 to 1000 | – | – | Cc1ccnn1-c1nc2cc(Nc3ccc(N4CCC(F)(F)C4)c(C(C)(C)N)n3)ncc2s1 [Example 273, 6-(2-Aminopropan-2-yl)-5-(3,3-difluoropyrrolidin-1-yl)-N-[2-(5-methyl-1H-pyrazol-1-yl)-[1,3]thiazolo[5,4-c]pyridin-6-yl]pyridin-2-amine]
< 100 | – | > 5000 | – | – | NC1(c2nc(Nc3cc4nc(-c5c(F)cccc5F)sc4cn3)ccc2N2CCC(F)(F)C2)CC1 [Example 274, 6-(1-Aminocyclopropyl)-N-[2-(2,6-difluorophenyl)-[1,3]thiazolo[5,4-c]pyridin-6-yl]-5-(3,3-difluoropyrrolidin-1-yl)pyridin-2-amine]
< 100 | – | > 5000 | – | – | CN(C)Cc1cc(N2CCOCC2)cc(Nc2cc3nc(-c4c(F)cccc4F)sc3cn2)n1 [Example 275, N-[2-(2,6-Difluorophenyl)-[1,3]thiazolo[5,4-c]pyridin-6-yl]-6-[(dimethylamino)methyl]-4-(morpholin-4-yl)pyridin-2-amine]
> 5000 | – | > 5000 | – | – | CN(C)Cc1ccc(N2CCOCC2)c(Nc2cc3nc(-c4c(F)cccc4F)sc3cn2)n1 [Example 276, N-[2-(2,6-Difluorophenyl)-[1,3]thiazolo[5,4-c]pyridin-6-yl]-6-[(dimethylamino)methyl]-3-(morpholin-4-yl)pyridin-2-amine]
< 100 | – | 1000 to 5000 | – | – | CC(c1nc(Nc2cc3nc(-c4c(F)cccc4F)sc3cn2)ccc1N1CCOCC1)N(C)C (centres unmarked) [Example 277, N-[2-(2,6-Difluorophenyl)-[1,3]thiazolo[5,4-c]pyridin-6-yl]-6-[1-(dimethylamino)ethyl]-5-(morpholin-4-yl)pyridin-2-amine]
< 100 | – | > 5000 | – | – | CCNC(C)c1nc(Nc2cc3nc(-c4c(F)cccc4F)sc3cn2)ccc1N1CCOCC1 (centres unmarked) [Example 278, N-[2-(2,6-Difluorophenyl)-[1,3]thiazolo[5,4-c]pyridin-6-yl]-6-[1-(ethylamino)ethyl]-5-(morpholin-4-yl)pyridin-2-amine]
< 100 | < 100 | 100 to 1000 | – | – | CN1C[C@@H]2C[C@H]1CN2c1cncc(Nc2cc3nc(-c4cccc(NS(C)(=O)=O)c4)sc3cn2)n1 [Example 285, N-{3-[6-({6-[(1S,4S)-5-methyl-2,5-diazabicyclo[2.2.1]heptan-2-yl]pyrazin-2-yl}amino)-[1,3]thiazolo[5,4-c]pyridin-2-yl]phenyl}methanesulfonamide]
< 100 | < 100 | 1000 to 5000 | – | – | CN1C[C@@H]2C[C@H]1CN2c1nccc(Nc2cc3nc(-c4cccc(NS(C)(=O)=O)c4)sc3cn2)n1 [Example 286, N-{3-[6-({2-[(1S,4S)-5-methyl-2,5-diazabicyclo[2.2.1]heptan-2-yl]pyrimidin-4-yl}amino)-[1,3]thiazolo[5,4-c]pyridin-2-yl]phenyl}methanesulfonamide]
100 to 1000 | – | 1000 to 5000 | – | – | CN1C[C@@H]2C[C@H]1CN2c1cncc(Nc2cc3nc(-c4cccc(S(=O)(=O)N(C)C)c4)sc3cn2)n1 [Example 288, N,N-dimethyl-3-[6-({6-[(1S,4S)-5-methyl-2,5-diazabicyclo[2.2.1]heptan-2-yl]pyrazin-2-yl}amino)-[1,3]thiazolo[5,4-c]pyridin-2-yl]benzene-1-sulfonamide]
< 100 | – | 100 to 1000 | – | – | CN1C[C@@H]2C[C@H]1CN2c1nccc(Nc2cc3nc(-c4cccc(S(=O)(=O)N(C)C)c4)sc3cn2)n1 [Example 289, N,N-dimethyl-3-[6-({2-[(1S,4S)-5-methyl-2,5-diazabicyclo[2.2.1]heptan-2-yl]pyrimidin-4-yl}amino)-[1,3]thiazolo[5,4-c]pyridin-2-yl]benzene-1-sulfonamide]
< 100 | – | 100 to 1000 | – | – | CNS(=O)(=O)c1cccc(-c2nc3cc(Nc4cncc(N5C[C@@H]6C[C@H]5CN6C)n4)ncc3s2)c1 [Example 290, N-methyl-3-[6-({6-[(1S,4S)-5-methyl-2,5-diazabicyclo[2.2.1]heptan-2-yl]pyrazin-2-yl}amino)-[1,3]thiazolo[5,4-c]pyridin-2-yl]benzene-1-sulfonamide]
< 100 | – | 100 to 1000 | – | – | CNS(=O)(=O)c1cccc(-c2nc3cc(Nc4ccnc(N5C[C@@H]6C[C@H]5CN6C)n4)ncc3s2)c1 [Example 291, N-methyl-3-[6-({2-[(1S,4S)-5-methyl-2,5-diazabicyclo[2.2.1]heptan-2-yl]pyrimidin-4-yl}amino)-[1,3]thiazolo[5,4-c]pyridin-2-yl]benzene-1-sulfonamide]
– | – | – | < 100 | 100 to 1000 | CCN1C[C@@H]2C[C@H]1CN2c1nc(C)cc(Nc2cc3nc(-c4cncc(N5C(=O)OC[C@H]5C)c4)sc3cn2)n1 [Example 295, (4R)-3-{5-[6-({2-[(1S,4S)-5-ethyl-2,5-diazabicyclo[2.2.1]heptan-2-yl]-6-methylpyrimidin-4-yl}amino)-[1,3]thiazolo[5,4-c]pyridin-2-yl]pyridin-3-yl}-4-methyl-1,3-oxazolidin-2-one]
